Laboratory results reported in US20260297042A1, “BIARYLAMIDE DERIVATIVES AND THEIR USE AS PKMYT1 INHIBITORS” (CANCER RESEARCH TECHNOLOGY LIMITED, priority 2023, published 2026).
pIC50: −log10 of the molar value.

Key:
OVCAR 3 cells = assay: Cancer cell line proliferation assay, ATP-based cell viability (Cell Titre Glow), OVCAR 3 (CCNE1-amplified); settings: KYSE30 (normal CCNE1) GI50 vs. OVCAR 3 (CCNE1-amplified) GI50
Outline: (§1)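 Proliferation of KYSE-30 (normal CCNE1) and CCNE1-amplified OVCAR 3 ovarian cancer cells treated with PKMYT1 inhibitors, read by Cell Titre Glow luminescence. GI50 is the concentration giving 50% growth inhibition.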

Human PKMYT1 = target: T1, Human PKMYT1 (Homo sapiens, UniProt Q99640); assay: PKMYT1 biochemical ADP-Glo enzymatic assay; settings: ADP-Glo
T1 construct: Human PKMYT1 75-362 was cloned as a TEV cleavable 6xHis fusion; 6xHis (TEV cleavable) (cleaved yes); made in house; host or cells: bacterial cells
T1 sequence (Q99640 75-362): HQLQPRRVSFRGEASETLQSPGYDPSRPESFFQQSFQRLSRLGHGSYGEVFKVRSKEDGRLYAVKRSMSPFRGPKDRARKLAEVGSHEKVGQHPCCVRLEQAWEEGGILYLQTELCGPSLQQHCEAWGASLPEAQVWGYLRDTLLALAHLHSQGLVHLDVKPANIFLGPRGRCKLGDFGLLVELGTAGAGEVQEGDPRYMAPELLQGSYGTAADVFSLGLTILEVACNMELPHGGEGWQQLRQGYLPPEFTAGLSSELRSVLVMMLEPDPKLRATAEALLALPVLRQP
Outline: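 Compounds were titrated over 10 points (3-fold steps), then 15 nM purified PKMYT1 kinase domain (aa 75-362) and 500 µM ATP were added in pH 7.5 HEPES buffer. After 60 min at 26 °C, remaining ATP was depleted and ADP converted to luminescence for IC50 fitting.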

[1] = target: T2, Cellular PKMYT1 Biomarker CDK1 pT14 (Homo sapiens, UniProt Q99640); assay: Inhibition of cellular PKMYT1 biomarker CDK1 pT14 in OVCAR 3 cells (immunoblot); type: cell-based; settings: 20 hours incubation
T2 construct: read-out CDK1 phospho-T14 immunoblot
T2 sequence (Q99640 1-499): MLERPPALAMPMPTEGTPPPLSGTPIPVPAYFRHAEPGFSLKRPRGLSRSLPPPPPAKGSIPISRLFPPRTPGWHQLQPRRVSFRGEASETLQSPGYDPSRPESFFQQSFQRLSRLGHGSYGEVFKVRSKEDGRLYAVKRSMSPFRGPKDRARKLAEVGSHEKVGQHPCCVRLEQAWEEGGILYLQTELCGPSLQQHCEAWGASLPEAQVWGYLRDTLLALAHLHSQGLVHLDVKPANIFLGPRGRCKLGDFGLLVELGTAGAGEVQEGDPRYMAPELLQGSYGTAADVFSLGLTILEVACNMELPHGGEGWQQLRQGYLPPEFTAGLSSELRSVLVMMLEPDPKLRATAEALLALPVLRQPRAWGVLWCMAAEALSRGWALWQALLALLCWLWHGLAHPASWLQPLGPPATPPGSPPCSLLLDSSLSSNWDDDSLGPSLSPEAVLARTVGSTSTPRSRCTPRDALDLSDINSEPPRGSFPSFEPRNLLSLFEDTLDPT
Outline: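 Confluent OVCAR 3 cells treated with a compound concentration range for 20 h at 37 °C. Lysates analysed by automated capillary immunoblot for CDK1 phospho-T14, with vinculin, fluorescence detection; IC50 by regression.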

KYSE-30 cells = assay: Cancer cell line proliferation assay, ATP-based cell viability (Cell Titre Glow), KYSE-30 (normal CCNE1); settings: Homo sapiens, KYSE-30 cells (normal CCNE1), concentration that achieves 50% cell growth proliferation inhibition, read-out: KYSE30 Gl50
Outline: as §1

WEE1 = target: T3, WEE1 (Homo sapiens, UniProt P30291); assay: Selectivity versus WEE1 assay (ADP-Glo enzymatic assay); type: biochemical; settings: for pIC50: ADP-Glo; for PKMYT1 vs. WEE1 selectivity: fold difference in selectivity for PKMYT1 over WEE1
T3 construct: purchased Thermo Fisher PR7373A
Outline: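 Compounds were pre-dispensed, enzyme (15 nM final) was added in pH 7.5 HEPES buffer, and ATP ([…]) then started a 60 min incubation at 26° C. Afterwards ADP-Glo reagents were added in turn and luminescence was measured to derive IC50 values.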

[2] = PKMYT1 kinase domain 15 nM, banded values
[3] = 15 nM PKMYT1 kinase domain, 500 µM ATP, 60 minutes at 26° C., banded
[4] = 15 nM WEE1, 60 minutes at 26° C., banded
[5] = banded, ">N" = at least in this band but could be higher

T3 sequence (P30291 whole entry): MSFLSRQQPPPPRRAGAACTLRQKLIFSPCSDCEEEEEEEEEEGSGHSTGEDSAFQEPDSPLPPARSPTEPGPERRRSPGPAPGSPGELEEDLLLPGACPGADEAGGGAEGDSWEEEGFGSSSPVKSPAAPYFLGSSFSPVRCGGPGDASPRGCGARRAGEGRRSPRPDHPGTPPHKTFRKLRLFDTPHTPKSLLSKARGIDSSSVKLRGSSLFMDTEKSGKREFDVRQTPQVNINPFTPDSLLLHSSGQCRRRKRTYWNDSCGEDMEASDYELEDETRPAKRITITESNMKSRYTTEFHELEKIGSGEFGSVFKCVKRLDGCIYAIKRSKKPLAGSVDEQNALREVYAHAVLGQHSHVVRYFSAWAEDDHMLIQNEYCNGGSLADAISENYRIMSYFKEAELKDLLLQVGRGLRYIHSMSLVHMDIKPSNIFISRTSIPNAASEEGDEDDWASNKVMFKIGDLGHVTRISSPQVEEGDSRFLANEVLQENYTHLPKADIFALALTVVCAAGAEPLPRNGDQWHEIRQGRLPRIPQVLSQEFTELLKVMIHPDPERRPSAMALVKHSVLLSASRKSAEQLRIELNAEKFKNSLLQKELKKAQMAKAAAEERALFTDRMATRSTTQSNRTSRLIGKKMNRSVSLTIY

Compound	pIC50 (Human PKMYT1; [2])	pIC50 [1]	pIC50 (WEE1; WEE1 15 nM, banded values)	PKMYT1 vs. WEE1 selectivity (WEE1; banded)	pIC50 (Human PKMYT1; [3])	pIC50 (WEE1; [4])	PKMYT1 vs. WEE1 selectivity (WEE1; [5])	Selectivity ratio KYSE30 Gl50 vs. OVCAR3 Gl50 (OVCAR 3 cells)	GI50 (KYSE-30 cells) [µM]
CCn1nc(Nc2ncc(C(=O)Nc3c(C)ccc(O)c3C)s2)c2ccccc21 [BAA-458, 2-((1-ethyl-1H-indazol-3-yl)amino)-N-(3-hydroxy-2,6-dimethylphenyl)thiazole-5-carboxamide]	> 7.30	> 7.00	4.96 to 6.00	X (100-<1000 fold)				Y (>20 fold)	0.5 to 5
Cc1ccc(O)c(C)c1NC(=O)c1cnc(Nc2cccc(-c3cnn(C)c3)n2)s1 [BAA-390, N-(3-hydroxy-2,6-dimethylphenyl)-2-((6-(1-methyl-1H-pyrazol-4-yl)pyridin-2-yl)amino)thiazole-5-carboxamide]		> 7.00			> 7.30	4.96 to 6.00	X (100-<1000 fold)	Y (>20 fold)	0.5 to 5
Cc1cn(-c2ccccn2)nc1Nc1ncc(C(=O)Nc2c(C)ccc(O)c2C)s1 [BAA-365, N-(3-hydroxy-2,6-dimethylphenyl)-2-((4-methyl-1-(pyridin-2-yl)-1H-pyrazol-3-yl)amino)thiazole-5-carboxamide]		> 7.00			> 7.30	< 4.96	X (100-<1000 fold)	Y (>20 fold)	0.5 to 5
Cc1ccc(O)c(C)c1NC(=O)c1cnc(Nc2ncnc3[nH]ccc23)s1 [BAA-441, 2-((7H-pyrrolo[2,3-d]pyrimidin-4-yl)amino)-N-(3-hydroxy-2,6-dimethylphenyl)thiazole-5-carboxamide]	> 7.30	> 7.00	4.96 to 6.00	W (10-<100 fold)				Y (>20 fold)	> 5
CCOc1ccc(Nc2ncc(C(=O)Nc3c(C)ccc(O)c3C)s2)nc1C [BAA-430, 2-((5-ethoxy-6-methylpyridin-2-yl)amino)-N-(3-hydroxy-2,6-dimethylphenyl)thiazole-5-carboxamide]	> 7.30	> 7.00	< 4.96	Y (1000-5000 fold)				Y (>20 fold)	> 5
Cc1cn(-c2ccccc2)nc1Nc1ncc(C(=O)Nc2c(C)ccc(O)c2C)s1 [BAA-361, N-(3-hydroxy-2,6-dimethylphenyl)-2-((4-methyl-1-phenyl-1H-pyrazol-3-yl)amino)thiazole-5-carboxamide]		> 7.00			> 7.30	< 4.96	X (100-<1000 fold)	Y (>20 fold)	0.5 to 5
Cc1cn(S(=O)(=O)C(C)C)nc1Nc1ncc(C(=O)Nc2c(C)ccc(O)c2C)s1 [BAA-268, N-(3-hydroxy-2,6-dimethylphenyl)-2-((1-(isopropylsulfonyl)-4-methyl-1H-pyrazol-3-yl)amino) thiazole-5-carboxamide]		> 7.00			> 7.30	< 4.96	Y (1000-5000 fold)	Y (>20 fold)	> 5

Second part, led by results:

pIC50 (Human PKMYT1; [2])	pIC50 [1]	pIC50 (WEE1; WEE1 15 nM, banded values)	PKMYT1 vs. WEE1 selectivity (WEE1; banded)	pIC50 (Human PKMYT1; [3])	pIC50 (WEE1; [4])	PKMYT1 vs. WEE1 selectivity (WEE1; [5])	Compound	Selectivity ratio KYSE30 Gl50 vs. OVCAR3 Gl50 (OVCAR 3 cells)	GI50 (KYSE-30 cells) [µM]
6.00 to 7.30	> 7.00	< 4.96	Y (1000-5000 fold)				CCn1nc(Nc2ncc(C(=O)Nc3c(C)ccc(O)c3C)s2)c2cc(C(F)(F)F)ccc21 [BAA-456, 2-((1-ethyl-5-(trifluoromethyl)-1H-indazol-3-yl)amino)-N-(3-hydroxy-2,6-dimethylphenyl)thiazole-5-carboxamide]	X (3-20 fold)	0.5 to 5
	> 7.00			6.00 to 7.30	< 4.96	Y (1000-5000 fold)	Cc1ccc(NC(=O)c2ccc(F)cc2)nc1Nc1ncc(C(=O)Nc2c(C)ccc(O)c2C)s1 [BAA-309, 2-((6-(4-fluorobenzamido)-3-methylpyridin-2-yl)amino)-N-(3-hydroxy-2,6-dimethylphenyl)thiazole-5-carboxamide]	Y (>20 fold)	0.5 to 5
	> 7.00			6.00 to 7.30	4.96 to 6.00	W (10-<100 fold)	Cc1ccc(O)c(C)c1NC(=O)c1cnc(Nc2cccc(N3CCC(F)(F)CC3)n2)s1 [BAA-314, 2-((6-(4,4-difluoropiperidin-1-yl)pyridin-2-yl)amino)-N-(3-hydroxy-2,6-dimethylphenyl)thiazole-5-carboxamide]	Y (>20 fold)	0.5 to 5
	> 7.00			> 7.30	4.96 to 6.00	X (100-<1000 fold)	Cc1cn(CC(=O)N2CC3(CCC3)C2)nc1Nc1ncc(C(=O)Nc2c(C)ccc(O)c2C)s1 [BAA-381, N-(3-hydroxy-2,6-dimethylphenyl)-2-((4-methyl-1-(2-oxo-2-(2-azaspiro[3.3]heptan-2-yl)ethyl)-1H-pyrazol-3-yl)amino)thiazole-5-carboxamide]	Y (>20 fold)	> 5
> 7.30	> 7.00	4.96 to 6.00	X (100-<1000 fold)				Cc1ccc(O)c(C)c1NC(=O)c1cnc(Nc2n[nH]cc2Cl)s1 [BAA-566, 2-((4-chloro-1H-pyrazol-3-yl)amino)-N-(3-hydroxy-2,6-dimethylphenyl)thiazole-5-carboxamide]	Y (>20 fold)	> 5
	> 7.00			6.00 to 7.30	< 4.96	X (100-<1000 fold)	Cc1cc(Nc2ncc(C(=O)Nc3c(C)ccc(O)c3C)s2)nc(N2CCC(F)(F)CC2)n1 [BAA-313, 2-((2-(4,4-difluoropiperidin-1-yl)-6-methylpyrimidin-4-yl)amino)-N-(3-hydroxy-2,6-dimethylphenyl)thiazole-5-carboxamide]	Y (>20 fold)	0.5 to 5
